Target: urease (Canavalia ensiformis, UniProt P07374)
Experiment: urease inhibition, ammonia production by indophenol method
Type: biochemical

urease, sequence (P07374 whole entry, looked up): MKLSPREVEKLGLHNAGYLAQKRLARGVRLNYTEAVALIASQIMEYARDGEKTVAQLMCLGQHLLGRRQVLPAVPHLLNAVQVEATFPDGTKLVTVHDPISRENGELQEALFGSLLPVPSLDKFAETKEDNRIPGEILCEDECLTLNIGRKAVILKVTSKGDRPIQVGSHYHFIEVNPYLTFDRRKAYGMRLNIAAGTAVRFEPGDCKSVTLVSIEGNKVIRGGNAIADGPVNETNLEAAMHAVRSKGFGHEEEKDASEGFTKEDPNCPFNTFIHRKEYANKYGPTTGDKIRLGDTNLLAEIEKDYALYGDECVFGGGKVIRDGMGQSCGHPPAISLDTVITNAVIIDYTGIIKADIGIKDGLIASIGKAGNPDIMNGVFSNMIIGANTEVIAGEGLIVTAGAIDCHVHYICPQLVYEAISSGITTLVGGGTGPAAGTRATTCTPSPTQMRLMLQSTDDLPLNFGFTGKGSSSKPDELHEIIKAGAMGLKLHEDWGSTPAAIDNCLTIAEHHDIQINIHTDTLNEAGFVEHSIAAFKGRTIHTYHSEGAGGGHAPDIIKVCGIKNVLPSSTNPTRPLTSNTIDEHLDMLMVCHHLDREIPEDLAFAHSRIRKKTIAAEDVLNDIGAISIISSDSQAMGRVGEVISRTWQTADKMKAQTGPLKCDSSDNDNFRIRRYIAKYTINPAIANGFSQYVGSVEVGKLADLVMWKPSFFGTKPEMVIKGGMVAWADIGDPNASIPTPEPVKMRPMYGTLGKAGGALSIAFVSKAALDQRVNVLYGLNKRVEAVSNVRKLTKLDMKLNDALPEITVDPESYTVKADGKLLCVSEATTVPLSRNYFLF

Row | Structure (SMILES) | IC50 [µM]
1 | NC(N)=S [Thiourea, reference compound] | 23
2 | C=CC1(C)CCC2C(=CCC3C2(C)CC(O)C(O)C3(C)CO)C1 (stereo not drawn) [compound 14, aglycon of virescenoside A] | 139
3 | C=CC1(C)CCC2=C(CCC3C2(C)CCC(O)C3(C)CO)C1 (stereo not drawn) [compound 15, aglycon of virescenoside B] | 125

From publication PMC6891331, “Virescenosides from the Holothurian-Associated Fungus Acremonium striatisporum Kmm 4401” (Marine Drugs, 2019)
